Consider 2 substances from US20100233676A1, “HIGH AFFINITY FLUOROCHROME BINDING PEPTIDES” (priority 2007, published 2010).

Test [1] concerns IQSPHFF peptide (SEQ ID NO:1), displayed on phage. The experiment in a line: Binding of IQSPHFF phage to BSA-conjugated fluorochromes. The following applies: FIG. 3A. The procedure:
FIG. 3 presents exemplary data showing molecular modeling of IQSPHFF binding to VT-680. FIG. 3A. Binding affinities of IQSPHFF phage to BSA-conjugated fluorochromes via ELISA. FIG. 3B. Schematic π-π bonding between the phenylalanines of the peptide and the indole or benzoindole subunit of VT680 FIG. 3C. […] FIG. 3D. Illustrating a possible interaction of the peptide hydrophobic isoleucine and the hydrophobic alkene of the fluorochrome.
The affinity of IQSPHFF was determined using […] for different commercially available benzindol fluorochromes (Cy 3.5, Cy 5.5, VT680 and AF750). […] FIG. 3A.
The N-hydroxysuccinimide (NHS) ester of the benzindol fluorochromes VT680, GH680, Cy3.5, Cy5.5 or AF750 (1 mg) were conjugated to bovine serum albumin (BSA 100 mg/mL; 0.3 M NaCO3 buffer, pH 8.6) under reaction conditions of approximately tenfold molar excess VT680 to BSA. BSA-fluorochrome conjugate or BSA was adsorbed (5.0 μg/0.1 ml well, w/vol) overnight to wells of a Nunc Maxisorp plage (Nunc, Rochester, N.Y.). Supernatants were discarded and washed twice with PBS and blocked (5% BSA, 0.3 M NaCO3, pH 8.6, room temperature, 45 min). […]
Readout was depicted as the mean difference between absorbances in the BSA-fluorochrome containing wells and the BSA-only (negative control) wells. […]

The test system of test [2] is HT1080 cells. The test can be described thus: In vitro cell labeling of HT1080 cells, fluorescence plate reader. The format is cell-based. The following applies: free (unconjugated) peptide. The procedure:
HT1080 […] cells (20,000 cells/well) were washed 3× with PBS to remove media then incubated with 0.1 mL of […] of Ac-IQSPHFF-NHS peptide or vehicle (PBS with 1% DMSO) for 1 hour at 37° C. Subsequent to incubation, cells were washed then incubated for 1 hour at 37° C. in the dark with 1 nmole of GH680 or 1 nmole of GH680+5 nmoles of underivatized peptide (competition experiment). Cells were then washed 6× with PBS+0.1% Tween 20 and analyzed via fluorescence plate reader GeminiXS (Molecular Devices). The IQSPHFF peptide sequence was covalently conjugated onto HT1080 cells and incubated with 5 nM of NIRF (VT680). Cells conjugated with IQSPHFF bound VT680>120-fold better than cells not conjugated with IQSPHFF. In addition, free (unconjugated) IQSPHFF peptide was able to compete for 98% of the binding of fluorochrome to peptide labeled cells, indicating the specificity of the interaction. FIG. 8A.

For the substance Cy5.5, the “affinity of IQSPHFF, relative between fluorochromes” value in test [1] is listed as “approximately four-fold less biding than VT680”.

Regarding IQSPHFF, the “competition of fluorochrome binding to peptide labeled cells by free peptide” value in test [2] was found to be 98%.
